{"source": "ChEMBL document CHEMBL3885881", "about": "“DrugMatrix”", "organism": "Rattus norvegicus", "assay": "DrugMatrix - Regimen: Daily Repeat", "format": "toxicity, organism-based, Sprague-Dawley", "parameters": "regimen Daily Repeat, gender Male, age 6-8 weeks", "conditions": "in vivo, po, 500 mg/kg, route oral GAVAGE, dose level High, vehicle 100 % WATER; for ABSOLUTE BASOPHIL / ABSOLUTE EOSINOPHIL / ABSOLUTE LYMPHOCYTE / ABSOLUTE MONOCYTE / ABSOLUTE SEGMENTED NEUTROPHIL / BASOPHIL / EOSINOPHIL / ERYTHROCYTE COUNT / HEMATOCRIT / HEMOGLOBIN / LEUKOCYTE COUNT / LYMPHOCYTE / MEAN CORPUSCULAR HEMOGLOBIN / MEAN CORPUSCULAR HEMOGLOBIN CONCENTRATION / MEAN CORPUSCULAR VOLUME / MONOCYTE / NEUTROPHIL / NUCLEATED RED BLOOD CELLS / PLATELET COUNT: tissue Blood; for ALANINE AMINOTRANSFERASE / ALBUMIN / ALKALINE PHOSPHATASE / ASPARTATE AMINOTRANSFERASE / BLOOD UREA NITROGEN / CARBON DIOXIDE / CHLORIDE / CHOLESTEROL / CREATINE PHOSPHOKINASE / CREATININE / GLUCOSE / LACTATE DEHYDROGENASE / LIPASE / PHOSPHORUS / POTASSIUM / SODIUM / TOTAL BILIRUBIN / TOTAL PROTEIN / URIC ACID: tissue Plasma"}
{"smiles": "Cc1c(O)c(=O)ccn1C", "note": "[DEFERIPRONE]", "values": [{"measurement": "ABSOLUTE BASOPHIL", "setting": "72 h, time 3 day", "value": 0, "unit": "CELLS/uL"}, {"measurement": "ABSOLUTE EOSINOPHIL", "setting": "72 h, time 3 day", "value": 97, "unit": "CELLS/uL"}, {"measurement": "ABSOLUTE LYMPHOCYTE", "setting": "72 h, time 3 day", "value": 8507, "unit": "CELLS/uL"}, {"measurement": "ABSOLUTE MONOCYTE", "setting": "72 h, time 3 day", "value": 223, "unit": "CELLS/uL"}, {"measurement": "ABSOLUTE SEGMENTED NEUTROPHIL", "setting": "72 h, time 3 day", "value": 223, "unit": "CELLS/uL"}, {"measurement": "BASOPHIL", "setting": "72 h, time 3 day", "value": 0, "unit": "%"}, {"measurement": "EOSINOPHIL", "setting": "72 h, time 3 day", "value": 1, "unit": "%"}, {"measurement": "ERYTHROCYTE COUNT", "setting": "72 h, time 3 day", "value": 4.97, "unit": "x10E6/uL"}, {"measurement": "HEMATOCRIT", "setting": "72 h, time 3 day", "value": 30.95, "unit": "%"}, {"measurement": "HEMOGLOBIN", "setting": "72 h, time 3 day", "value": 11.7, "unit": "G/DL"}, {"measurement": "LEUKOCYTE COUNT", "setting": "72 h, time 3 day", "value": 9.05, "unit": "x10E3/uL"}, {"measurement": "LYMPHOCYTE", "setting": "72 h, time 3 day", "value": 94, "unit": "%"}, {"measurement": "MEAN CORPUSCULAR HEMOGLOBIN", "setting": "72 h, time 3 day", "value": 23.55, "unit": "pg"}, {"measurement": "MEAN CORPUSCULAR HEMOGLOBIN CONCENTRATION", "setting": "72 h, time 3 day", "value": 37.8, "unit": "G/DL"}, {"measurement": "MEAN CORPUSCULAR VOLUME", "setting": "72 h, time 3 day", "value": 62.15, "unit": "fL"}, {"measurement": "MONOCYTE", "setting": "72 h, time 3 day", "value": 2.5, "unit": "%"}, {"measurement": "NEUTROPHIL", "setting": "72 h, time 3 day", "value": 2.5, "unit": "%"}, {"measurement": "NUCLEATED RED BLOOD CELLS", "setting": "72 h, time 3 day", "value": "0 /100WBC"}, {"measurement": "PLATELET COUNT", "setting": "72 h, time 3 day", "value": 1456.5, "unit": "x10E3/uL"}, {"measurement": "ALANINE AMINOTRANSFERASE", "setting": "72 h, time 3 day", "value": 39, "unit": "u/L"}, {"measurement": "ALBUMIN", "setting": "72 h, time 3 day", "value": 4.4, "unit": "G/DL"}, {"measurement": "ALKALINE PHOSPHATASE", "setting": "72 h, time 3 day", "value": 373, "unit": "u/L"}, {"measurement": "ASPARTATE AMINOTRANSFERASE", "setting": "72 h, time 3 day", "value": 80, "unit": "u/L"}, {"measurement": "BLOOD UREA NITROGEN", "setting": "72 h, time 3 day", "value": 18.5, "unit": "mg/dL"}, {"measurement": "CARBON DIOXIDE", "setting": "72 h, time 3 day", "value": 22.5, "unit": "mmol/L"}, {"measurement": "CHLORIDE", "setting": "72 h, time 3 day", "value": 105.5, "unit": "MEQ/L"}, {"measurement": "CHOLESTEROL", "setting": "72 h, time 3 day", "value": 119, "unit": "mg/dL"}, {"measurement": "CREATINE PHOSPHOKINASE", "setting": "72 h, time 3 day", "value": 322.5, "unit": "u/L"}, {"measurement": "CREATININE", "setting": "72 h, time 3 day", "value": 0.18, "unit": "mg/dL"}, {"measurement": "GLUCOSE", "setting": "72 h, time 3 day", "value": 131, "unit": "mg/dL"}, {"measurement": "LACTATE DEHYDROGENASE", "setting": "72 h, time 3 day", "value": 239, "unit": "u/L"}, {"measurement": "LIPASE", "setting": "72 h, time 3 day", "value": 10, "unit": "u/L"}, {"measurement": "PHOSPHORUS", "setting": "72 h, time 3 day", "value": 11.5, "unit": "mg/dL"}, {"measurement": "POTASSIUM", "setting": "72 h, time 3 day", "value": 6.21, "unit": "MEQ/L"}, {"measurement": "SODIUM", "setting": "72 h, time 3 day", "value": 143.8, "unit": "MEQ/L"}, {"measurement": "TOTAL BILIRUBIN", "setting": "72 h, time 3 day", "value": 0.25, "unit": "mg/dL"}, {"measurement": "TOTAL PROTEIN", "setting": "72 h, time 3 day", "value": 6, "unit": "G/DL"}, {"measurement": "URIC ACID", "setting": "72 h, time 3 day", "value": 1.45, "unit": "mg/dL"}, {"measurement": "ABSOLUTE BASOPHIL", "setting": "120 h, time 5 day", "value": 0, "unit": "CELLS/uL"}, {"measurement": "ABSOLUTE EOSINOPHIL", "setting": "120 h, time 5 day", "value": 0, "unit": "CELLS/uL"}, {"measurement": "ABSOLUTE LYMPHOCYTE", "setting": "120 h, time 5 day", "value": 9110, "unit": "CELLS/uL"}, {"measurement": "ABSOLUTE MONOCYTE", "setting": "120 h, time 5 day", "value": 78, "unit": "CELLS/uL"}, {"measurement": "ABSOLUTE SEGMENTED NEUTROPHIL", "setting": "120 h, time 5 day", "value": 412, "unit": "CELLS/uL"}, {"measurement": "BASOPHIL", "setting": "120 h, time 5 day", "value": 0, "unit": "%"}, {"measurement": "EOSINOPHIL", "setting": "120 h, time 5 day", "value": 0, "unit": "%"}, {"measurement": "ERYTHROCYTE COUNT", "setting": "120 h, time 5 day", "value": 5.3, "unit": "x10E6/uL"}, {"measurement": "HEMATOCRIT", "setting": "120 h, time 5 day", "value": 33.8, "unit": "%"}, {"measurement": "HEMOGLOBIN", "setting": "120 h, time 5 day", "value": 12.93, "unit": "G/DL"}, {"measurement": "LEUKOCYTE COUNT", "setting": "120 h, time 5 day", "value": 9.6, "unit": "x10E3/uL"}, {"measurement": "LYMPHOCYTE", "setting": "120 h, time 5 day", "value": 95.33, "unit": "%"}, {"measurement": "MEAN CORPUSCULAR HEMOGLOBIN", "setting": "120 h, time 5 day", "value": 24.43, "unit": "pg"}, {"measurement": "MEAN CORPUSCULAR HEMOGLOBIN CONCENTRATION", "setting": "120 h, time 5 day", "value": 38.27, "unit": "G/DL"}, {"measurement": "MEAN CORPUSCULAR VOLUME", "setting": "120 h, time 5 day", "value": 63.8, "unit": "fL"}, {"measurement": "MONOCYTE", "setting": "120 h, time 5 day", "value": 0.67, "unit": "%"}, {"measurement": "NEUTROPHIL", "setting": "120 h, time 5 day", "value": 4, "unit": "%"}, {"measurement": "NUCLEATED RED BLOOD CELLS", "setting": "120 h, time 5 day", "value": "0 /100WBC"}, {"measurement": "PLATELET COUNT", "setting": "120 h, time 5 day", "value": 1024.33, "unit": "x10E3/uL"}, {"measurement": "ALANINE AMINOTRANSFERASE", "setting": "120 h, time 5 day", "value": 34.33, "unit": "u/L"}, {"measurement": "ALBUMIN", "setting": "120 h, time 5 day", "value": 4.7, "unit": "G/DL"}, {"measurement": "ALKALINE PHOSPHATASE", "setting": "120 h, time 5 day", "value": 261, "unit": "u/L"}, {"measurement": "ASPARTATE AMINOTRANSFERASE", "setting": "120 h, time 5 day", "value": 61.33, "unit": "u/L"}, {"measurement": "BLOOD UREA NITROGEN", "setting": "120 h, time 5 day", "value": 17, "unit": "mg/dL"}, {"measurement": "CARBON DIOXIDE", "setting": "120 h, time 5 day", "value": 26.33, "unit": "mmol/L"}, {"measurement": "CHLORIDE", "setting": "120 h, time 5 day", "value": 109.33, "unit": "MEQ/L"}, {"measurement": "CHOLESTEROL", "setting": "120 h, time 5 day", "value": 127, "unit": "mg/dL"}, {"measurement": "CREATINE PHOSPHOKINASE", "setting": "120 h, time 5 day", "value": 232.33, "unit": "u/L"}, {"measurement": "CREATININE", "setting": "120 h, time 5 day", "value": 0.21, "unit": "mg/dL"}, {"measurement": "GLUCOSE", "setting": "120 h, time 5 day", "value": 140.33, "unit": "mg/dL"}, {"measurement": "LACTATE DEHYDROGENASE", "setting": "120 h, time 5 day", "value": 60.33, "unit": "u/L"}, {"measurement": "LIPASE", "setting": "120 h, time 5 day", "value": 9, "unit": "u/L"}, {"measurement": "PHOSPHORUS", "setting": "120 h, time 5 day", "value": 11.03, "unit": "mg/dL"}, {"measurement": "POTASSIUM", "setting": "120 h, time 5 day", "value": 6.28, "unit": "MEQ/L"}, {"measurement": "SODIUM", "setting": "120 h, time 5 day", "value": 148.93, "unit": "MEQ/L"}, {"measurement": "TOTAL BILIRUBIN", "setting": "120 h, time 5 day", "value": 0.2, "unit": "mg/dL"}, {"measurement": "TOTAL PROTEIN", "setting": "120 h, time 5 day", "value": 6.63, "unit": "G/DL"}, {"measurement": "URIC ACID", "setting": "120 h, time 5 day", "value": 1.83, "unit": "mg/dL"}]}
